Source: publication doi:10.1101/2025.09.10.675409, “ACAD10 encodes two orphan enzymes in the ether lipid biosynthetic and salvage pathways” (bioRxiv, 2026)

Columns and labels:
[1] = biological target: T1, C. thermarum ACAD10 kinase domain (Caldalkalibacillus thermarum, UniProt F5L6J0); assay: […] incorporation, TLC, phosphorimaging; type: biochemical; details: activator; binding site only modelled, no density in crystal
T1 construct: gene CathTA2_1440; purified prokaryotic ACAD10 kinase domain homolog; HYDxK motif with D214/K216, N219, DWE motif D234-E236, R61, E78

[2] = biological target: T2, C. elegans ACAD10 KD (ACAD10 kinase domain) (Caenorhabditis elegans, UniProt O01590); assay: […] incorporation into lipid, TLC; type: biochemical; details: activator; purified domain with mouse liver mitochondrial extract as lipid source; Mg2+
T2 construct: gene acds-10; kinase domain, residues 209-568, purified
T2 sequence (O01590 209-568): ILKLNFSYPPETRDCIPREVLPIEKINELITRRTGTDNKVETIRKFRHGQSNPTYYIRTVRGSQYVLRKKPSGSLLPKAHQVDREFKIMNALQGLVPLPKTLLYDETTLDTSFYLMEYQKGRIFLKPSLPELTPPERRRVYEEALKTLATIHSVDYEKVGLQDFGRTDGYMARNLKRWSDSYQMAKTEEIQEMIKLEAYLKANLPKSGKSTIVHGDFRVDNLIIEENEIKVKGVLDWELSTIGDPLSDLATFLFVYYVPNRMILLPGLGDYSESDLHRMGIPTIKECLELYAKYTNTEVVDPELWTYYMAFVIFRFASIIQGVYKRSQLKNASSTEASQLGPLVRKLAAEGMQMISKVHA

[3] = biological target: T3, C. elegans ACAD10 phosphatase domain (Caenorhabditis elegans, UniProt O01590); assay: dephosphorylation of […]-labelled lipid, TLC, phosphorimaging; type: biochemical; details: labelled compound; Mg2+
T3 construct: gene acds-10; phosphatase domain, residues 1-212
T3 sequence (O01590 1-212): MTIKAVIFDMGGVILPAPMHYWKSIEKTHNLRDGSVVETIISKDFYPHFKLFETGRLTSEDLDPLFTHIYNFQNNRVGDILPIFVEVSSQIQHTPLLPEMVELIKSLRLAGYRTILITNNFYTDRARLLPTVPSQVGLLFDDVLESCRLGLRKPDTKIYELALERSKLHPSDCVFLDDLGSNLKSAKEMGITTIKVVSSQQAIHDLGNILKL

[4] = biological target: T2, C. elegans ACAD10 KD (ACAD10 kinase domain); assay: […] incorporation, TLC, phosphorimaging; type: biochemical; details: [γ-32P]ATP
[5] = biological target: T1, C. thermarum ACAD10 kinase domain; assay: X-ray crystallography, […] Å; type: binding; details: nucleotide groove between N- and C-lobe; Mg2+ and acetyl-CoA in crystallization, neither seen

Question: For `CC(=O)SCCNC(=O)CCNC(=O)[C@H](O)C(C)(C)COP(=O)(O)OP(=O)(O)OC[C@H]1O[C@@H](n2cnc3c(N)ncnc32)[C@H](O)[C@@H]1OP(=O)(O)O` [acetyl-CoA], which “32P incorporation, TLC, phosphorimaging” value [1] is on record?
Answer: acetyl-CoA stimulates C. thermarum ACAD10 kinase domain

Question: What about the “32P incorporation into lipid, TLC” value [2] of the same compound?
Answer: In addition to acetyl-CoA, CoA alone or other CoA thioesters also activated

Question: `CCCCCCCCCCCCCCCCOC[C@H](COP(=O)(O)O)OC(C)=O` [1-alkyl (16:0), 2-acetyl (2:0), 1-O-alkyl-2-acetyl-sn-glycero-3-phosphate] was tested. Which “dephosphorylation of 32P-labelled lipid, TLC, phosphorimaging” value [3] did it give?
Answer: phosphatase domain selectively dephosphorylated 1-O-alkyl-2-acetyl-sn-glycero-3-phosphate but not 1-O-alkyl-2-acyl-sn-glycero-3-phosphate

Question: `CCCCCCCCCCCCCCCCOCC(O)CO` (racemic) [chimyl alcohol, 1-O-hexadecyl-rac-glycerol] was tested. Which “32P incorporation, TLC, phosphorimaging” value [4] did it give?
Answer: C. elegans ACAD10 phosphorylated chimyl alcohol (1-O-hexadecyl-rac-glycerol) (Figure 1G)

Question: For `Nc1ncnc2c1ncn2[C@@H]1O[C@H](COP(=O)(O)OP(=O)(O)NP(=O)(O)O)[C@@H](O)[C@H]1O` [AMP-PNP], which “X-ray crystallography, 2.15 Å” value [5] is on record?
Answer: crystal structure of the Caldalkalibacillus thermarum ACAD10 kinase domain bound to the ATP analog AMP-PNP
